{
  "source": "patent US9173848B2",
  "about": "“Solid pharmaceutical fixed dose compositions comprising irbesartan and amlodipine, their preparation and their therapeutic application” (SANOFI, priority 2009, dated 2015)",
  "origin": "cited, not measured here",
  "key": {"[1]": {"settings": "in vivo"}},
  "data": [
    {"smiles": "CCOC(=O)C1=C(COCCN)NC(C)=C(C(=O)OC)C1c1ccccc1Cl", "note": "(stereo not shown) [Amlodipine besylate]", "values": [
      {"measurement": "solubility in water", "value": "slightly soluble"},
      {"measurement": "absolute bioavailability", "setting": "[1]", "value": "64-90%"}
    ]},
    {"smiles": "CCCCC1=NC2(CCCC2)C(=O)N1Cc1ccc(-c2ccccc2-c2nnn[nH]2)cc1", "note": "[Irbesartan, 2-n-butyl-4-spirocyclopentane-1-[(2′-(tetrazol-5-yl)biphenyl-4-yl)methyl]-2-imidazolin-5-one]", "values": [
      {"measurement": "media of maximum solubility", "setting": "parabolic pH solubility profile", "value": "0.1 N HCl and pH 7.5 phosphate buffer"},
      {"measurement": "solubility in water", "value": "insoluble"}
    ]}
  ]
}
